From PubChem BioAssay (NCI)
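In this assay, cells in 96-well plates receive the compound at five concentrations for 48 hours. Endpoints are linearly interpolated between the surrounding concentrations. TGI: total growth inhibition.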

Tests used:
Assay in all cases: DTP human tumour cell line panel, 48 h
HCT-15 colon = system: HCT-15 colon
T-47D breast = system: T-47D breast
SNB-19 CNS = system: SNB-19 CNS
CCRF-CEM leukemia = system: CCRF-CEM leukemia
CAKI-1 renal = system: CAKI-1 renal
SN12C renal = system: SN12C renal
MDA-MB-435 = system: MDA-MB-435
K-562 leukemia = system: K-562 leukemia
RPMI-8226 leukemia = system: RPMI-8226 leukemia
MDA-N = system: MDA-N
IGROV1 ovarian = system: IGROV1 ovarian
MDA-MB-231 breast = system: MDA-MB-231 breast
MOLT-4 leukemia = system: MOLT-4 leukemia
HL-60(TB) leukemia = system: HL-60(TB) leukemia
HOP-92 NSCLC = system: HOP-92 NSCLC
NCI-H226 lung = system: NCI-H226 lung
EKVX NSCLC = system: EKVX NSCLC
NCI-H522 lung = system: NCI-H522 lung
UACC-62 melanoma = system: UACC-62 melanoma
OVCAR-8 ovarian = system: OVCAR-8 ovarian

SMILES | TGI (HCT-15 colon) | TGI (T-47D breast) | TGI (SNB-19 CNS) | TGI (CCRF-CEM leukemia) | TGI (CAKI-1 renal) | TGI (SN12C renal) | TGI (MDA-MB-435) | TGI (K-562 leukemia) | TGI (RPMI-8226 leukemia) | TGI (MDA-N) | TGI (IGROV1 ovarian) | TGI (MDA-MB-231 breast) | TGI (MOLT-4 leukemia) | TGI (HL-60(TB) leukemia) | TGI (HOP-92 NSCLC) | TGI (NCI-H226 lung) | TGI (EKVX NSCLC) | TGI (NCI-H522 lung) | TGI (UACC-62 melanoma) | TGI (OVCAR-8 ovarian)
COC(=O)[C@H](Cc1ccccc1)NP(=O)(OCCC#N)OCC1OC(n2cc(C)c(=O)[nH]c2=O)CC1N=[N+]=[N-] (stereo partly drawn) | > 100 µM | > 100 µM | > 100 µM | > 100 µM | > 100 µM | > 100 µM | > 100 µM | > 100 µM | > 100 µM | > 100 µM | > 100 µM | > 100 µM | > 100 µM | > 100 µM | > 100 µM | > 100 µM | > 100 µM | > 100 µM | > 100 µM | > 100 µM
O=C1C(N2CCN(c3ccccn3)CC2)=C(Cl)C(=O)c2ncccc21 | 4.06 µM | 4.09 µM | > 10 µM | 6.28 µM | 2.12 µM | 3.22 µM | > 5.27 µM | > 10 µM | 1.87 µM | 3.08 µM | > 10 µM | > 7.14 µM | 5.99 µM | 0.906 µM | 2.94 µM | > 10 µM | > 10 µM | 1.03 µM | > 6.76 µM | > 6.1 µM
CCCCCC(C/C=N/N(C)C)C(O)(C(F)(F)F)C(F)(F)F (stereo not drawn) | > 100 µM | > 100 µM | > 100 µM | 62.7 µM | > 100 µM | > 100 µM | > 100 µM | > 100 µM | 60.4 µM | > 100 µM | 74.5 µM | 70.6 µM | > 100 µM | 31.6 µM | 78.2 µM | > 100 µM | > 100 µM | > 100 µM | > 100 µM | > 100 µM
CN(C)CCCNC(=O)c1c(O)c2ccccc2[nH]c1=O | > 100 µM | > 100 µM |  | > 100 µM | > 100 µM | > 100 µM | > 100 µM | > 100 µM | > 100 µM | > 100 µM | > 100 µM | > 100 µM | > 100 µM | > 100 µM | > 100 µM | > 100 µM | > 100 µM | > 100 µM | > 100 µM | > 100 µM
O=C(O)c1n[nH][nH]c1=S | > 100 µM | > 100 µM | > 100 µM | > 100 µM | > 100 µM | > 100 µM | > 100 µM | > 100 µM | > 100 µM | > 100 µM | > 100 µM | > 100 µM | > 100 µM | > 100 µM | > 100 µM | > 100 µM | > 100 µM | > 100 µM | > 100 µM | > 100 µM
COc1ccc(OC)c(-c2nc3n(c2/C=C2/C(=O)Nc4ccccc42)CCS3)c1 | > 100 µM | > 100 µM | > 100 µM | > 100 µM | > 100 µM | > 100 µM | 40 µM | > 100 µM | > 100 µM | 44.7 µM | > 100 µM | 92.3 µM | 78.2 µM | > 100 µM | > 100 µM | > 100 µM | > 100 µM | > 100 µM | > 100 µM | > 100 µM
Cn1c(=O)c2c(nc3n(CCCCl)c(=O)ccn23)n(C)c1=O | > 100 µM | > 100 µM | > 100 µM | > 100 µM | > 100 µM | > 100 µM | > 100 µM | > 100 µM | > 100 µM | > 100 µM | > 100 µM | > 100 µM | > 100 µM | > 100 µM | > 100 µM | > 100 µM | > 100 µM | > 100 µM | > 100 µM | > 100 µM
CC1CCC2(O)C3(C)CC4(O)OC2(C1O)C1(O)C3(O)C(OC(=O)c2ccc[nH]2)C(O)(C(C)C)C41C (stereo not drawn) | > 100 µM | > 100 µM | > 100 µM | > 100 µM | > 100 µM | > 100 µM | > 100 µM | > 100 µM | > 100 µM | > 100 µM | > 100 µM | > 100 µM | > 100 µM | > 100 µM | > 100 µM | > 100 µM | > 100 µM | > 100 µM | > 100 µM | > 100 µM
OC1c2ccccc2CC12Cc1ccccc1C2 (stereo not drawn) | > 100 µM | > 100 µM | > 100 µM | > 100 µM | > 100 µM | > 100 µM | > 100 µM | > 100 µM | > 100 µM | > 100 µM | > 100 µM | > 100 µM | > 100 µM | > 100 µM | > 100 µM | 25.1 µM | > 100 µM | > 100 µM |  | > 100 µM
CN(Cc1ccccc1)C(=NC#N)N(Cc1ccccc1)Cc1ccccc1 | 71 µM | > 100 µM | > 100 µM | > 100 µM | 58.6 µM | > 92.9 µM | 33.7 µM | > 100 µM | 55.4 µM | 39.6 µM | > 80.6 µM | 58.7 µM | > 100 µM | > 100 µM | 55.1 µM | 67.5 µM | > 100 µM | 55.5 µM | 55.6 µM | > 100 µM
C[C@]12CC[C@@H]3c4ccc(O)cc4CC[C@H]3[C@@H]1CC[C@@H]2OP(=O)(O)O | > 100 µM | > 100 µM | > 100 µM | > 100 µM | > 100 µM | > 100 µM | > 100 µM | > 100 µM | > 100 µM | > 100 µM | > 100 µM | > 100 µM | > 100 µM | > 100 µM | > 100 µM | > 100 µM | > 100 µM | > 100 µM | > 100 µM | > 100 µM
Cc1ccc(Cc2n[nH]c(=O)n2Nc2ccccc2)cc1 | > 100 µM | > 100 µM | > 100 µM | > 100 µM | > 100 µM | > 100 µM | > 100 µM | > 100 µM | > 100 µM | > 100 µM | > 100 µM | > 100 µM | > 100 µM | > 100 µM | > 100 µM | > 100 µM | > 100 µM | > 100 µM | > 100 µM | > 100 µM
C=CCOc1cc(NC(=S)c2ccoc2C)ccc1OC | > 100 µM | > 100 µM | > 100 µM | > 100 µM | > 100 µM | > 100 µM | > 100 µM | > 100 µM | > 100 µM | > 100 µM | > 100 µM | > 100 µM | > 100 µM | > 100 µM | > 100 µM | > 100 µM | > 100 µM | > 100 µM | > 100 µM | > 100 µM
CC(=O)N1C(OC(C)C)CC(C)N1c1ccccc1 (stereo not drawn) | > 10 µM | > 10 µM | > 10 µM | > 10 µM | > 10 µM | > 10 µM | > 10 µM | > 10 µM | > 10 µM | > 10 µM | > 10 µM | > 10 µM | > 10 µM | > 10 µM | > 10 µM | > 10 µM | > 10 µM |  |  | > 10 µM
CC1(C)C2C=C(CCN3CCOCC3)CC1C2 (stereo not drawn) | > 100 µM | > 100 µM | > 100 µM | > 100 µM | > 100 µM | > 100 µM | > 100 µM | > 100 µM | > 100 µM | > 100 µM | > 100 µM | > 100 µM | > 100 µM | > 100 µM | > 100 µM | > 100 µM | > 100 µM | > 100 µM | > 100 µM | > 100 µM
O=[N+]([O-])c1c(F)c(F)c2c(c1F)Nc1ccccc1S2 | 12.6 µM | 12.1 µM | 19.2 µM | 6.46 µM | 8.24 µM | 12.8 µM | 14.4 µM | > 100 µM | 27.2 µM | 14.5 µM | 8.64 µM | 4.76 µM | 6.57 µM | 16.1 µM | 31 µM | 35.2 µM | 16 µM | 10.9 µM | 20.4 µM | 3.89 µM
CC1(C)CC(C2=NCCO2)CC(C)(C)N1 | > 100 µM | > 100 µM | > 100 µM | > 100 µM | > 100 µM | > 100 µM | > 100 µM | > 100 µM | > 100 µM | > 100 µM | > 100 µM | > 100 µM | > 100 µM | > 100 µM | > 100 µM | > 100 µM | > 100 µM |  | > 100 µM | > 100 µM
COc1c2cc(C(C)(C)C)cc1Cc1cccc(c1OCc1cccc([N+](=O)[O-])c1)Cc1cc(C(C)(C)C)cc(c1OC)Cc1cccc(c1OCc1cccc([N+](=O)[O-])c1)Cc1cc(C(C)(C)C)cc(c1OC)Cc1cccc(c1OCc1cccc([N+](=O)[O-])c1)C2 | > 50 µM | > 50 µM | > 50 µM | > 5 µM | > 50 µM | > 50 µM | > 50 µM | > 50 µM | > 50 µM | > 50 µM | > 50 µM | > 50 µM | > 50 µM | > 50 µM | > 50 µM |  | > 50 µM | > 50 µM | > 50 µM | > 50 µM
CN1CCc2c3n(c4cc(Br)ccc24)[C@H](O)CCCC31 (stereo partly drawn) | > 5.77 µM | > 10 µM | > 10 µM | 3.74 µM | > 7.17 µM | > 10 µM | 3.27 µM | 1.88 µM | 5.36 µM | 3.24 µM | > 10 µM | 4.38 µM | 3.97 µM | 4.15 µM | > 9.12 µM | > 10 µM | > 10 µM | 3.01 µM |  | 3.43 µM
